# Values quoted from earlier work, collected in patent publication US10015963B2, “Microemulsions of lipidated glycines and phenoxy ethanol for preservation of personal care products” (GALAXY SURFACTANTS LTD., priority 2014, dated 2018).
# Tests used:
# [1] = carboxyl group
# [2] = at room temperature
Compound,pKa [1],phenoxy ethanol solubilized in water [2]
"CCCCCCCC(=O)NCC(=O)O [capryloyl glycine, N-capryloyl glycine]",4.05,–
"OCCOc1ccccc1 [phenoxy ethanol, 2-phenoxy ethanol]",–,2.3%
